The source of these data is ChEMBL document CHEMBL3526119, “Effect of the CYP2C8 genotype on the pharmacokinetics and pharmacodynamics of repaglinide” (Drug Metab Dispos, 2011).

This data set in a line: Oral bioavailability in human. It counts as ADME, organism-based. Conditions: in vivo.

As a reminder, the bioavailability is the share of a dose that reaches the circulation, judged against a reference dose that is usually intravenous. A higher bioavailability goes with much systemic uptake. Molecule `CCOc1cc(CC(=O)N[C@@H](CC(C)C)c2ccccc2N2CCCCC2)ccc1C(=O)O` [REPAGLINIDE] yielded a bioavailability of 60%.
